From patent US20200331850A1, “NOVEL SULFONAMIDE CARBOXAMIDE COMPOUNDS” (Inflazome Limited, priority 2017, published 2020)
pIC50: −log10 of the molar value. Where a name gives a salt, the structure may show the parent alone.

How the values were obtained:
[1] = PK protocol: pharmacokinetic parameters in male Sprague Dawley rats (intravenous or oral); assay type: in vivo; conditions: plasma, rat; for Vd: read-out: Vdss
Description: Pharmacokinetic parameters were determined in male Sprague Dawley rats (Charles River, UK, 250-350 g; or Vital River Laboratory Animal Technology Co Ltd, Beijing, China, 7-9 weeks old). Animals were individually housed during the study and maintained under a 12 h light/dark cycle.
For intravenous administration, compounds were formulated as a solution in water or DMSO:PBS [10:90] in 2 mL/kg dosing volume and administered via tail vein. For oral administration, compounds were formulated as a solution in DMSO:water [10:90] in 5 mL/kg dosing volume and administered orally.
Serial blood samples (about 120-300 μL) were taken from each animal at each of 8 time-points post dose (0.083, 0.25, 0.5, 1, 2, 4, 8 and 24 h) or at each of 12 time-points post dose (0.03, 0.1, 0.17, 0.25, 0.5, 1, 2, 4, 6, 8, 12 and 24 h) or pre-dose and at each of 9 time-points post dose (0.25, 0.5, 1, 2, 4, 6, 8, 12 and 24 h). Samples were held on ice for no longer than 30 minutes before centrifugation (10,000 rpm (8,385 g) for 3 minutes; or 5,696 rpm (3,000 g) for 15 minutes) for plasma generation. Plasma was frozen on dry ice prior to bioanalysis. PK parameters were generated from LC-MS/MS data using Dotmatics or Phoenix WinNonlin 6.3 software.

NLRP3 [2] = molecular target: T1, NLRP3 (Homo sapiens, UniProt Q96P20); assay: Human whole blood IL1β release assay (LPS + nigericin, AlphaLisa IL-1β); assay type: cell-based; parameters: Plate out 80 μl of whole blood containing 1βg/ml of LPS in 96-well, clear bottom cell culture plate; from tissue; host or cells: human whole blood from healthy donors, LPS-primed and nigericin-stimulated; conditions: NLRP3 inhibitory activity in human whole blood, IL-1β release, 10 μM nigericin, read-out: HWB IC50
Description: For systemic delivery, the ability to inhibit NLRP3 when the compounds are present within the bloodstream is of great importance. For this reason, the NLRP3 inhibitory activity of a number of compounds in human whole blood was investigated in accordance with the following protocol.
Human whole blood in Li-heparin tubes was obtained from healthy donors from a volunteer donor panel. • 1. Plate out 80 μl of whole blood containing 1βg/ml of LPS in 96-well, clear bottom cell culture plate (Corning #3585) • 2. Add 10 μl compound (8 points half-log dilution with 10 μM top dose) or vehicle (DMSO 0.1% FAC) to the appropriate wells • 3. Incubate for 3 hrs at 37° C., 5% CO2 • 4. Add 10 μl Nigericin (Sigma # N7143) (10 μM FAC) to all wells • 5. Incubate for 1 hr at 37° C., 5% CO2 • 6. At the end of the incubation period, spin plates at 300×g for 5 mins to pellet cells and remove 20 μl of supernatant and add to 96-well v-bottom plates for IL-1β analysis (note: these plates containing the supernatants can be stored at −80° C. to be analysed at a later date) • 7. IL-1β was measured according to the manufacturer protocol (Perkin Elmer-AlphaLisa IL-1 Kit AL220F-5000) • 8. IC50 data is fitted to a non-linear regression equation (log inhibitor vs response-variable slope 4-parameters)

NLRP3 [3] = molecular target: T1, NLRP3; assay: THP-1 cells pyroptosis assay (LPS + nigericin, resazurin readout); assay type: cell-based; parameters: Seed THP-1 cells (25,000 cells/well) containing 1.0 μg/ml LPS in 40 μl of RPMI medium; host or cells: THP-1 cells, LPS-primed and nigericin-stimulated; conditions: NLRP3 inhibitory activity in THP-1 cells, 1.0 μg/ml LPS, 5 μM nigericin
From the text: It is well established that the activation of NLRP3 leads to cell pyroptosis and this feature plays an important part in the manifestation of clinical disease (Yan-gang Liu et al., Cell Death & Disease, 2017, 8(2), e2579; Alexander Wree et al., Hepatology, 2014, 59(3), 898-910; Alex Baldwin et al., Journal of Medicinal Chemistry, 2016, 59(5), 1691-1710; Ema Ozaki et al., Journal of Inflammation Research, 2015, 8, 15-27; Zhen Xie & Gang Zhao, Neuroimmunology Neuroinflammation, 2014, 1(2), 60-65; Mattia Cocco et al., Journal of Medicinal Chemistry, 2014, 57(24), 10366-10382; T. Satoh et al., Cell Death & Disease, 2013, 4, e644). Therefore, it is anticipated that inhibitors of NLRP3 will block pyroptosis, as well as the release of pro-inflammatory cytokines (e.g. IL-1β) from the cell. THP-1 cells (ATCC # TIB-202) were grown in RPMI containing L-glutamine (Gibco #11835) supplemented with 1 mM sodium pyruvate (Sigma # S8636) and penicillin (100 units/ml)/streptomycin (0.1 mg/ml) (Sigma # P4333) in 10% Fetal Bovine Serum (FBS) (Sigma # F0804). The cells were routinely passaged and grown to confluency (˜10^6 cells/ml). On the day of the experiment, THP-1 cells were harvested and resuspended into RPMI medium (without FBS). The cells were then counted and viability (>90%) checked by Trypan blue (Sigma # T8154). Appropriate dilutions were made to give a concentration of 625,000 cells/ml. To this diluted cell solution was added LPS (Sigma # L4524) to give a […] Final Assay Concentration (FAC). 40 μl of the final preparation was aliquoted into each well of a 96-well plate. The plate thus prepared was used for compound screening. The following method step-by-step assay was followed for compound screening. • 1. Seed THP-1 cells (25,000 cells/well) containing 1.0 μg/ml LPS in 40 μl of RPMI medium (without FBS) in 96-well, black walled, clear bottom cell culture plates coated with poly-D-lysine (VWR #734-0317) • 2. Add 5 μl compound (8 points half-log dilution, with 10 μM top dose) or vehicle (DMSO 0.1% FAC) to the appropriate wells • 3. […] Add 5 μl nigericin (Sigma # N7143) (FAC 5 μM) to all wells • 5. […] At the end of the incubation period, spin plates at 300×g for 3 mins and remove supernatant • 7. Then add 50 μl of resazurin (Sigma # R7017) (FAC 100 μM resazurin in RPMI medium without FBS) and incubate plates for a further 1-2 hrs at 37° C. and 5% CO2 • 8. Plates were read in an Envision reader at Ex 560 nm and Em 590 nm • 9. IC50 data is fitted to a non-linear regression equation (log inhibitor vs response-variable slope 4-parameters) The results of the pyroptosis assay performed are summarised in Table 1 below as THP IC50.

[4] = intravenous administration, 1 mg/kg

T1 sequence (Q96P20 whole entry): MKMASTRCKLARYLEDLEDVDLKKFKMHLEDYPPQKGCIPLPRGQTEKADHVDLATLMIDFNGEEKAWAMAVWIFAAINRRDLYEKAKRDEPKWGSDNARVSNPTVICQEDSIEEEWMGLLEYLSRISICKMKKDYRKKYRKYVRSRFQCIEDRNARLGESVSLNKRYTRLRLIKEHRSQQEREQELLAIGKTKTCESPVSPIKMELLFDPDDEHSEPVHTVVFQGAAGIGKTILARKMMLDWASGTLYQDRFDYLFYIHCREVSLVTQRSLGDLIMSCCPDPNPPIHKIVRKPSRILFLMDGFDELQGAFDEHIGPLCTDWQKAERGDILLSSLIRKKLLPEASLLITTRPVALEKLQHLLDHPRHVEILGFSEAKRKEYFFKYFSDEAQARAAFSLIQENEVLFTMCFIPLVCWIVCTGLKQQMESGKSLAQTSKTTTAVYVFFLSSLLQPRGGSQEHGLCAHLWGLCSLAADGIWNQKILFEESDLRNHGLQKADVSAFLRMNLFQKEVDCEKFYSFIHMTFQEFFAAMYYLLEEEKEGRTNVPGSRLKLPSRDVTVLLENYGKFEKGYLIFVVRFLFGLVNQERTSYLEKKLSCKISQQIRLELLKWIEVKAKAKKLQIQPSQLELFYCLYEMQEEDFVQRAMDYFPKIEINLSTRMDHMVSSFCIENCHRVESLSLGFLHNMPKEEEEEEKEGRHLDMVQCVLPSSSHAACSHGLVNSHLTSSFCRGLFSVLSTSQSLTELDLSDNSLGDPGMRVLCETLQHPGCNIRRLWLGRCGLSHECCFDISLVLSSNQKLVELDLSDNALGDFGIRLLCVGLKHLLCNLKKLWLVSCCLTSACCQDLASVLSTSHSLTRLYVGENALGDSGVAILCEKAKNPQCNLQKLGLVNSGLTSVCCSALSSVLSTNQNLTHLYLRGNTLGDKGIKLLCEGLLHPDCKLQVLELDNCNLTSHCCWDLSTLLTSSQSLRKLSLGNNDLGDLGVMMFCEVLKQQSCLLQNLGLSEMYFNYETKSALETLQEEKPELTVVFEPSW

SMILES	AUC [1, 4]	clearance [1, 4]	half-life [1, 4]	Vd [1, 4]	pIC50 (NLRP3 [2])	pIC50 (NLRP3 [3])	other results
CCN(CC)CCCS(=O)(=O)NC(=O)Nc1c2c(cc3c1CCC3)CCC2 [Example 3, 3-(Diethylamino)-N-((1,2,3,5,6,7-hexahydro-s-indacen-4-yl)carbamoyl)propane-1-sulfonamide, potassium salt]	1180 ng·h/mL	14.2 mL/min/kg	1.5 h	0.79 L/kg	≥ 6.00	–	AUC ([1]; oral administration, 3 mg/kg): 2270 ng·h/mL; CL/F ([1]; oral administration, 3 mg/kg): 22.6 mL/min/kg; Cmax ([1]; oral administration, 3 mg/kg): 819 ng/mL; Tmax ([1]; oral administration, 3 mg/kg): 0.42 h; bioavailability ([1]; oral administration, 3 mg/kg): 64.1%; half-life ([1]; oral administration, 3 mg/kg): 1.8 h
CN(C)CCCS(=O)(=O)NC(=O)Nc1c2c(cc3c1CCC3)CCC2 [Example 8, 3-(Dimethylamino)-N-((1,2,3,5,6,7-hexahydro-s-indacen-4-yl)carbamoyl)propane-1-sulfonamide, potassium salt]	2350 ng·h/mL	7.1 mL/min/kg	1.1 h	0.49 L/kg	≥ 6.00	–	–
O=C(Nc1c2c(cc3c1CCC3)CCC2)NS(=O)(=O)CCN1CCC1 [Example 29, 2-(Azetidin-1-yl)-N-((1,2,3,5,6,7-hexahydro-s-indacen-4-yl)carbamoyl)ethane-1-sulfonamide, Potassium Salt]	2780 ng·h/mL	6 mL/min/kg	1.3 h	0.53 L/kg	≥ 6.00	–	–
CCN(CC)CCCS(=O)(=O)NC(=O)Nc1c(-c2cccnc2)cc(F)cc1C(C)C [Example 37, 3-(Diethylamino)-N-((4-fluoro-2-isopropyl-6-(pyridin-3-yl)phenyl)carbamoyl)propane-1-sulfonamide]	591 ng·h/mL	28.2 mL/min/kg	0.9 h	0.55 L/kg	≥ 6.00	–	–

Continued, in another order:

AUC [1, 4]	clearance [1, 4]	half-life [1, 4]	Vd [1, 4]	pIC50 (NLRP3 [2])	pIC50 (NLRP3 [3])	SMILES	other results
–	–	–	–	≥ 5.12	5.00 to 5.70	CC(C)N1CC2(COC(CS(=O)(=O)NC(=O)Nc3c4c(cc5c3CCC5)CCC4)C2)C1 (stereo not shown) [Example 77, N-((1,2,3,5,6,7-Hexahydro-s-indacen-4-yl)carbamoyl)-1-(2-isopropyl-6-oxa-2-azaspiro[3.4]octan-7-yl)methanesulfonamide, Potassium Salt]	–
–	–	–	–	≥ 5.30	5.70 to 5.80	CN(C)CCCCS(=O)(=O)NC(=O)Nc1c2c(cc3c1CCC3)CCC2 [Example 82, 4-(Dimethylamino)-N-((1,2,3,5,6,7-hexahydro-s-indacen-4-yl)carbamoyl)butane-1-sulfonamide]	–
–	–	–	–	–	5.70 to 5.80	COCCC(=O)N(C)CCCS(=O)(=O)NC(=O)Nc1c2c(cc3c1CCC3)CCC2 [Example 94, N-(3-(N-((1,2,3,5,6,7-Hexahydro-s-indacen-4-yl)carbamoyl)sulfamoyl)propyl)-3-methoxy-N-methylpropanamide]	–
–	–	–	–	–	5.00 to 5.70	CC(C)c1cc(F)cc(C(C)C)c1NC(=O)NS(=O)(=O)CCCN(C)C [Example 101, 3-(Dimethylamino)-N-((4-fluoro-2,6-diisopropylphenyl)carbamoyl)propane-1-sulfonamide]	–
–	–	–	–	–	5.00 to 5.70	CC(C)c1cc(Cl)cc(C(C)C)c1NC(=O)NS(=O)(=O)CCCN(C)C [Example 108, 3-(Dimethylamino)-N-((4-chloro-2,6-diisopropylphenyl)carbamoyl)propane-1-sulfonamide]	–
–	–	–	–	–	5.00 to 5.70	CC(C)c1cc(F)cc(-c2ccnc(C#N)c2)c1NC(=O)NS(=O)(=O)Cc1cccnc1 [Example 112, N-((2-(2-Cyanopyridin-4-yl)-4-fluoro-6-isopropylphenyl)carbamoyl)-1-(pyridin-3-yl)methanesulfonamide]	–
